Measurements published in PMC8539251, “Peimine, an Anti-Inflammatory Compound from Chinese Herbal Extracts, Modulates Muscle-Type Nicotinic Receptors” (International Journal of Molecular Sciences, 2021).

How the values were obtained:
[1] = target: T1, muscle-type nicotinic acetylcholine receptor (nAChR) (Torpedo marmorata, UniProt P02711+Q6S3H8+Q6S3H9+Q6S3I0); test: two-electrode voltage clamp in Xenopus oocytes, inhibition of […] ACh-elicited currents (peak; steady-state IC50 […]); type: cell-based
T1 construct: gene CHRNA1; purified native nAChR reconstituted in asolectin lipids, microtransplanted to Xenopus oocytes; with β1, γ and δ nAChR subunits (heteropentamer 2α1, β1, δ, γ)

[2] = target: T1, muscle-type nicotinic acetylcholine receptor (nAChR); test: two-electrode voltage clamp in Xenopus oocytes, agonist concentration-response; type: cell-based

T1 sequence (P02711 25-461): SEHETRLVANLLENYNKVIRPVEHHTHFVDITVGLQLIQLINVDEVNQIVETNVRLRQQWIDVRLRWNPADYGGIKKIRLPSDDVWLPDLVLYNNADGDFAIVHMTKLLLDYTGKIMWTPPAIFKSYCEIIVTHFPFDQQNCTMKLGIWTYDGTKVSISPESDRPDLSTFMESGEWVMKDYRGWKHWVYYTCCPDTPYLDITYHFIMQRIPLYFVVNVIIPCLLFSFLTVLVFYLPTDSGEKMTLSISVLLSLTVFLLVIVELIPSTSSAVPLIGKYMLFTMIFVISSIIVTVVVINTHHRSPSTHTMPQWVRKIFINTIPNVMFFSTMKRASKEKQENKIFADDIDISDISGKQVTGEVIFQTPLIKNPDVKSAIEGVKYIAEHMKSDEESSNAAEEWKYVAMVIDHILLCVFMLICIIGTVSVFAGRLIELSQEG
T1 sequence (Q6S3I0 25-493): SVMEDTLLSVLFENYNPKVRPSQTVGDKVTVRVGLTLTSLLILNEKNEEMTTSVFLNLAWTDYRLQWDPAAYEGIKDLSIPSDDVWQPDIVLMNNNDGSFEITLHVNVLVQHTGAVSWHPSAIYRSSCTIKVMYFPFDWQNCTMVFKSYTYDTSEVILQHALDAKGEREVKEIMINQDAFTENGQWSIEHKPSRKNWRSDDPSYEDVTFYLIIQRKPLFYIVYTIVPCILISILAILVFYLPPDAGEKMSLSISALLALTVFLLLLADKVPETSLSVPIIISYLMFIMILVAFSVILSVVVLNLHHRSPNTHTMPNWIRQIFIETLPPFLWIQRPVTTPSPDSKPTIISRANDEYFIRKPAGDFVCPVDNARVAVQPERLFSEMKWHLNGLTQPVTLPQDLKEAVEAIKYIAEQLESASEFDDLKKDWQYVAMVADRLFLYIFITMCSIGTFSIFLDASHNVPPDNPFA
T1 sequence (Q6S3H9 18-505): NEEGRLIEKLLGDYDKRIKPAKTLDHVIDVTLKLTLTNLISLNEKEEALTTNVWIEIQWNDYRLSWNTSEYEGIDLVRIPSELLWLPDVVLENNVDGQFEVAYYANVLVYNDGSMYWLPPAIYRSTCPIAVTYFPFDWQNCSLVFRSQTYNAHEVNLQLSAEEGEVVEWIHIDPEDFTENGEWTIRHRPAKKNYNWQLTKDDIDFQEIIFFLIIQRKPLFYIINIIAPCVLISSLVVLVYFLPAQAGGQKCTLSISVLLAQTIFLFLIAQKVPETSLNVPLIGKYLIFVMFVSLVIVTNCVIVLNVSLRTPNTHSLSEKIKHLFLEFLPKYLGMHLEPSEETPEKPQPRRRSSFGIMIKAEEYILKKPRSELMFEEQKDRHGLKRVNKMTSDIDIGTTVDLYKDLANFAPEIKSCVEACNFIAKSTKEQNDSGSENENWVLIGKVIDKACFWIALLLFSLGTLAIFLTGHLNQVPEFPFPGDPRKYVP
T1 sequence (Q6S3H8 22-522): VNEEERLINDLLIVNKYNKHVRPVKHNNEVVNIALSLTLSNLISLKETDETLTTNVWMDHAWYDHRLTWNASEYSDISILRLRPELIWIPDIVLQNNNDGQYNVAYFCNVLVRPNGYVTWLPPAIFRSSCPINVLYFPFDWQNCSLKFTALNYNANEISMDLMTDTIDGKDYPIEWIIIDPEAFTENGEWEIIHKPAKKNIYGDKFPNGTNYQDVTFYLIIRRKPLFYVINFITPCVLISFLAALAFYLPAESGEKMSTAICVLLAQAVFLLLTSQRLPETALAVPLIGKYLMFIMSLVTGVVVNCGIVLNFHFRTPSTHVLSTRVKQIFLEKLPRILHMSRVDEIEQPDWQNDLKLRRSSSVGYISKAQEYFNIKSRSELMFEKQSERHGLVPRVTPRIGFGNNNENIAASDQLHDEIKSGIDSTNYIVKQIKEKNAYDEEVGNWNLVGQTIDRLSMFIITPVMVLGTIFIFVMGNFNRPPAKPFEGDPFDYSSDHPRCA

For C[C@H]1CC[C@@H]2N(C1)C[C@H]1[C@@H]3C[C@H]4[C@@H](C[C@H](O)[C@H]5C[C@@H](O)CC[C@@]54C)[C@@H]3CC[C@@H]1[C@]2(C)O [Pm, Peimine], the IC50 [1] was 2.9 µM.

CC(=O)OCC[N+](C)(C)C [ACh, acetylcholine] was tested, and the EC50 [2] was 31 µM.
